US8426441B2, “Inhibitors of bruton's tyrosine kinase” (Roche Palo Alto LLC, priority 2007, dated 2013)

Columns and labels:
[1] = target: T1, Btk enzyme (His-tagged, full-length) (Homo sapiens, UniProt Q06187); assay: Bruton's Tyrosine Kinase (Btk) Inhibition Assay (33P filtration capture); format: biochemical; conditions: 100 μM ATP, 30 μM biotinylated SH2 peptide substrate, 30 min at 30° C.
T1 construct: 5-10 nM Btk enzyme (His-tagged, full-length); His
Source text: The assay is a capture of radioactive ^33P phosphorylated product through filtration. The interactions of Btk, biotinylated SH2 peptide substrate (Src homology), and ATP lead to phosphorylation of the peptide substrate. Biotinylated product is bound streptavidin sepharose beads. All bound, radiolabeled products are detected by scintillation counter.
Plates assayed are 96-well polypropylene (Greiner) and 96-well 1.2 μm hydrophilic PVDF filter plates (Millipore). Concentrations reported here are final assay concentrations: 10-100 μM compounds in DMSO (Burdick and Jackson), 5-10 nM Btk enzyme (His-tagged, full-length), 30 μM peptide substrate (Biotin-Aca-AAAEEIYGEI-NH2), 100 μM ATP (Sigma), 8 mM imidazole (Sigma, pH 7.2), 8 mM glycerol-2-phosphate (Sigma), 200 μM EGTA (Roche Diagnostics), 1 mM MnCl2 (Sigma), 20 mM MgCl2 (Sigma), 0.1 mg/ml BSA (Sigma), 2 mM DTT (Sigma), 1 μCi ^33P ATP (Amersham), 20% streptavidin sepharose beads (Amersham), 50 mM EDTA (Gibco), 2 M NaCl (Gibco), 2 M NaCl w/1% phosphoric acid (Gibco), microscint-20 (Perkin Elmer).
IC50 determinations are calculated from 10 data points per compound utilizing data produced from a standard 96-well plate assay template. One control compound and seven unknown inhibitors were tested on each plate and each plate was run twice. Typically, compounds were diluted in half-log starting at 100 μM and ending at 3 nM. The control compound was staurosporine. Background was counted in the absence of peptide substrate. Total activity was determined in the presence of peptide substrate. The following protocol was used to determine Btk inhibition.
1) Sample preparation: The test compounds were diluted at half-log increments in assay buffer (imidazole, glycerol-2-phosphate, EGTA, MnCl2, MgCl2, BSA).
2) Bead preparation • a.) rinse beads by centrifuging at 500 g • b.) reconstitute the beads with PBS and EDTA to produce a 20% bead slurry
3) Pre-incubate reaction mix without substrate (assay buffer, DTT, ATP, P ATP) and mix with substrate (assay buffer, DTT, ATP, ^33P ATP, peptide substrate) 30° C. for 15 min.
4) To start assay, pre-incubate 10 μL Btk in enzyme buffer (imidazole, glycerol-2-phosphate, BSA) and 10 μL of test compounds for 10 min at RT.
5) Add 30 μL reaction mixture without or with substrate to Btk and compounds.
6) Incubate 50 μL total assay mix for 30 min at 30° C.
7) Transfer 40 μL of assay to 150 μL bead slurry in filter plate to stop reaction.
8) Wash filter plate after 30 min, with following steps • a. 3×250 μL NaCl • b. 3×250 μL NaCl containing 1% phosphoric acid • c. 1×250 μL H2O
9) Dry plate for 1 h at 65° C. or overnight at RT
10) Add 50 μL microscint-20 and count ^33P cpm on scintillation counter.
Calculate percent activity from raw data in cpm percent activity=(sample−bkg)/(total activity−bkg)×100
Calculate IC50 from percent activity, using one-site dose response sigmoidal model y=A+((B−A)/(1+((x/C)^D)))) • x=cmpd conc, y=% activity, A=min, B=max, C=IC50, D=1 (hill slope)

T1 sequence (Q06187 whole entry): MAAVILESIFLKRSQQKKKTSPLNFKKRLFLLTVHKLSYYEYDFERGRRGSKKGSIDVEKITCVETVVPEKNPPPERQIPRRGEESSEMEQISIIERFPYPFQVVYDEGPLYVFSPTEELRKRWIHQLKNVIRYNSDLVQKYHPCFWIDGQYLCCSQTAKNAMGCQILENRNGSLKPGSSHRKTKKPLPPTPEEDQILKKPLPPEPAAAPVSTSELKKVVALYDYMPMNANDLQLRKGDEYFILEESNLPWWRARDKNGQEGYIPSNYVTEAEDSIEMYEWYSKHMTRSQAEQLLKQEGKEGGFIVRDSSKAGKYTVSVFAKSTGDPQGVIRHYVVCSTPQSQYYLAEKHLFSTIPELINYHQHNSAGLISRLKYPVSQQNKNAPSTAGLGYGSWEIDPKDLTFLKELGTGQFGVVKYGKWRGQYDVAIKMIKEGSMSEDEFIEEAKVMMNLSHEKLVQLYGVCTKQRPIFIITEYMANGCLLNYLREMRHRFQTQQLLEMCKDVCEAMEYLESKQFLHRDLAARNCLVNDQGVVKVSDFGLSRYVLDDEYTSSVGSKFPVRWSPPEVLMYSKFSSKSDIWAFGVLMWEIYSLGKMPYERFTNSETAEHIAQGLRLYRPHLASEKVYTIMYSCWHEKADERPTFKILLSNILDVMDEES

melting point [°C] | IC50 [1] [nM] | SMILES
182.7 to 199.7 | 18 | Cc1c(NC(=O)c2ccc(C(C)(C)C)cc2)cccc1-c1cc(NC(=O)NCCCN(C)C)c2nccn2c1 [Example I-77, 4-tert-Butyl-N-(3-{8-[3-(3-dimethylamino-propyl)-ureido]-imidazo[1,2-a]pyridin-6-yl}-2-methyl-phenyl)-benzamide]
148 to 149 | 24 | CNC(=O)Nc1cc(-c2cccc(NC(=O)c3ccc(C(C)(C)C)cc3)c2C)cn2ccnc12 [Example I-56, 4-tert-Butyl-N-{2-methyl-3-[8-(3-methyl-ureido)-imidazo[1,2-a]pyridin-6-yl]-phenyl}-benzamide]
183 to 184 | 19 | Cc1c(NC(=O)c2ccc(C(C)(C)C)cc2)cccc1-c1cc(NC(=O)NCCO)c2nccn2n1 [Example I-11, 4-tert-Butyl-N-(3-{8-[3-(2-hydroxy-ethyl)-ureido]-imidazo[1,2-b]pyridazin-6-yl}-2-methyl-phenyl)-benzamide]
– | 13 | CCNC(=O)Nc1cc(-c2cccc(NC(=O)c3ccc(C(C)(C)C)cc3)c2C)cn2ccnc12 [Example I-53, 4-tert-Butyl-N-{3-[8-(3-ethyl-ureido)-imidazo[1,2-a]pyridin-6-yl]-2-methyl-phenyl}-benzamide]
– | 10 | Cc1c(NC(=O)NC2CCC(S(C)(=O)=O)CC2)cccc1-c1cc(Nc2ccc(C(=O)N3CCOCC3)cn2)c2nccn2c1 (centres unmarked) [Example I-218, 1-(4-Methanesulfonyl-cyclohexyl)-3-(2-methyl-3-{8-[5-(morpholine-4-carbonyl)-pyridin-2-ylamino]-imidazo[1,2-a]pyridin-6-yl}-phenyl)-urea]
163 to 165 | 10 | CNC(=O)Nc1cc(-c2cccc(NC(=O)c3ccc(C(C)(C)C)cc3)c2C)nn2ccnc12 [Example I-8, 4-tert-Butyl-N-{2-methyl-3-[8-(3-methyl-ureido)-imidazo[1,2-b]pyridazin-6-yl]-phenyl}-benzamide]
– | 15 | Cn1ccc(Nc2cc(-c3cccc(NC(=O)c4ccc(C5CC5)cc4)c3CO)nn3ccnc23)n1 [Example I-45, 4-Cyclopropyl-N-{2-hydroxymethyl-3-[8-(1-methyl-1H-pyrazol-3-ylamino)-imidazo[1,2-b]pyridazin-6-yl]-phenyl}-benzamide]
– | 13 | O=C(Nc1cccc(-c2cc(Nc3ccc(C(=O)N4CCOCC4)cn3)c3nccn3n2)c1CO)c1ccc(C2CC2)cc1 [Example I-43, 4-Cyclopropyl-N-(2-hydroxymethyl-3-{8-[5-(morpholine-4-carbonyl)-pyridin-2-ylamino]-imidazo[1,2-b]pyridazin-6-yl}-phenyl)-benzamide]
181 to 183 | 22 | CCNC(=O)Nc1cc(-c2cccc(NC(=O)c3ccc(C(C)(C)C)cc3)c2C)nn2ccnc12 [Example I-7, 4-tert-Butyl-N-{3-[8-(3-ethyl-ureido)-imidazo[1,2-b]pyridazin-6-yl]-2-methyl-phenyl}-benzamide]
